Measurements from ChEMBL document CHEMBL1201862, “PubChem BioAssay data set” (2004).
Calls of active or inactive are those of the source.

Tests used:
[1] = biological target: T1, Corticotropin-releasing factor receptor 2/Corticotropin-releasing factor-binding protein (Homo sapiens, UniProt P24387+Q13324); experiment: Dose Response confirmation of uHTS hits for small molecule antagonists of the CRF-binding protein and CRF-R2 receptor complex.; format: functional; conditions: read-out: IC50_Mean
T1 sequence (Q13324 whole entry): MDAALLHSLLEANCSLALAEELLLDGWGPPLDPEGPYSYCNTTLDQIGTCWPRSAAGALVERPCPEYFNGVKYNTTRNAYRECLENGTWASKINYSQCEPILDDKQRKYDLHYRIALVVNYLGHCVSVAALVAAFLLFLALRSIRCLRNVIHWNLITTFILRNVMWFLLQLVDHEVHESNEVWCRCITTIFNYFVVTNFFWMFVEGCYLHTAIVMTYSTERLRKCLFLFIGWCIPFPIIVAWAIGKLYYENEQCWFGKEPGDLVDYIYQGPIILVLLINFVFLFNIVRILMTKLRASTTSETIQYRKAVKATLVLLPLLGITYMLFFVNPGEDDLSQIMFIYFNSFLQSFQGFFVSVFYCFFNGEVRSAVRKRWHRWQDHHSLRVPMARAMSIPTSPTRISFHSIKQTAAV
T1 sequence (P24387 whole entry): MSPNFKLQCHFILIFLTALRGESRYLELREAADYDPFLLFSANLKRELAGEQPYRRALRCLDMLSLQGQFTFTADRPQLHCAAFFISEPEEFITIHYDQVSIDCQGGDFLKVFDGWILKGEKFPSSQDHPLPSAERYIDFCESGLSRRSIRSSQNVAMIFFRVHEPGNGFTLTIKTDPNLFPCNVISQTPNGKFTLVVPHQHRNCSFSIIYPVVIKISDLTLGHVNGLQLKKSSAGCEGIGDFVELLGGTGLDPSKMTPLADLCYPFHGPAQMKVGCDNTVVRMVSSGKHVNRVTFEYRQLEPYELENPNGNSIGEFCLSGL

[2] = biological target: T1, Corticotropin-releasing factor receptor 2/Corticotropin-releasing factor-binding protein; experiment: activators of CRF receptor 2 with binding protein – uHTS hits, confirmation (AID 602473); format: functional; conditions: read-out: EC50_Mean
[3] = biological target: Tyrosyl-DNA phosphodiesterase 2 (Homo sapiens, UniProt O95551); experiment: human TDP2 enzyme inhibitors, dose response, biochemical, epi absorbance, IC50 (AID 743297)
[4] = biological target: Megakaryocyte-associated tyrosine-protein kinase (Homo sapiens, UniProt P42679); format: functional;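 also: affinity measured as one member of a kinase panel (Navigating the Kinome) against MATK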
[5] = biological target: Ribosomal protein S6 kinase alpha-3 (Homo sapiens, UniProt P51812); format: functional;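 also: measured within a kinome-wide profiling panel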
[6] = biological target: Dual specificity protein kinase CLK2 (Homo sapiens, UniProt P49760); format: functional
[7] = biological target: Protein kinase C zeta type (Homo sapiens, UniProt Q05513); format: functional;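 also: measured as one member of a broad kinase profiling panel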
[8] = biological target: cGMP-dependent protein kinase 1 (Homo sapiens, UniProt Q13976); format: functional;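 also: value from a kinome panel screen with PRKG1 as the panel member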
[9] = biological target: Phosphorylase b kinase gamma catalytic chain, liver/testis isoform (Homo sapiens, UniProt P15735); format: functional;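 also: PHKG2 measured as one member of a kinome-wide kinase panel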
[10] = biological target: Proto-oncogene tyrosine-protein kinase receptor Ret (Homo sapiens, UniProt P07949); format: functional;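 also: measured within a kinome-wide profiling panel, RET as the panel member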
[11] = biological target: Ribosomal protein S6 kinase beta-1 (Homo sapiens, UniProt P23443); format: functional;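 also: measured as one member of a kinome-wide profiling panel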
[12] = biological target: Calcium/calmodulin-dependent protein kinase type II subunit gamma (Homo sapiens, UniProt Q13555); format: functional
[13] = biological target: Tyrosine-protein kinase receptor TYRO3 (Homo sapiens, UniProt Q06418); format: functional;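 also: TYRO3 value obtained as one member of a kinome-wide profiling panel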
[14] = biological target: Rho-associated protein kinase 2 (Homo sapiens, UniProt O75116); format: functional
[15] = biological target: MAP kinase-activated protein kinase 2 (Homo sapiens, UniProt P49137); format: functional;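 also: measured as one member of a kinome-wide kinase panel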
[16] = biological target: Cell division cycle 7-related protein kinase (Homo sapiens, UniProt O00311); format: functional;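 also: value obtained from a kinome-wide kinase panel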
[17] = biological target: Testis-specific serine/threonine-protein kinase 1 (Homo sapiens, UniProt Q9BXA7); format: functional
[18] = biological target: Insulin receptor (Homo sapiens, UniProt P06213); format: functional;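 also: insulin receptor kinase tested as one member of a kinome-wide kinase panel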
[19] = biological target: Tyrosine-protein kinase ABL1 (Homo sapiens, UniProt P00519); format: functional
[20] = biological target: cAMP-dependent protein kinase catalytic subunit PRKX (Homo sapiens, UniProt P51817); format: functional
[21] = biological target: Maternal embryonic leucine zipper kinase (Homo sapiens, UniProt Q14680); format: functional
[22] = biological target: RAC-alpha serine/threonine-protein kinase (Homo sapiens, UniProt P31749); format: functional;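 also: AKT1 affinity measured as one member of a kinome-wide kinase profiling panel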
[23] = biological target: Rho-associated protein kinase 1 (Homo sapiens, UniProt Q13464); format: functional;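 also: measured within a broad kinome-wide panel profiling many kinases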
[24] = biological target: Serine/threonine-protein kinase DCLK1 (Homo sapiens, UniProt O15075); format: functional;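 also: affinity for DCLK1 (listed as DCAMKL1) measured as one member of a kinome-wide kinase profiling panel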
[25] = biological target: Fibroblast growth factor receptor 3 (Homo sapiens, UniProt P22607); format: functional
[26] = biological target: Serine/threonine-protein kinase PLK1 (Homo sapiens, UniProt P53350); format: functional;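 also: PLK1 measured as one member of a kinome-wide profiling panel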
[27] = biological target: Glycogen synthase kinase-3 beta (Homo sapiens, UniProt P49841); format: functional;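 also: value comes from a broad kinome profiling panel, with GSK3B as the panel member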
[28] = biological target: Receptor tyrosine-protein kinase erbB-4 (Homo sapiens, UniProt Q15303); format: functional;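 also: ERBB4 member of a kinome-wide kinase profiling panel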
[29] = biological target: Dual specificity protein kinase CLK4 (Homo sapiens, UniProt Q9HAZ1); format: functional
[30] = biological target: Polyadenylate-binding protein 1 (Homo sapiens, UniProt P11940); experiment: PABP1 MLLE–PAM2 interaction inhibitors, dose response, miRNA deadenylation inhibitor project, biochemical, fluorescence polarization, Cy5-PAM2 peptide, secondary (AID 602260); format: functional; conditions: read-out: IC50_Mean
[31] = biological target: Serine/threonine-protein kinase MRCK alpha (Homo sapiens, UniProt Q5VT25); format: functional
[32] = biological target: Serine/threonine-protein kinase BRSK1 (Homo sapiens, UniProt Q8TDC3); format: functional;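 also: measured within a kinome-wide kinase panel, with the target listed as KIAA1811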
[33] = biological target: Dual specificity tyrosine-phosphorylation-regulated kinase 1A (Homo sapiens, UniProt Q13627); format: functional;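 also: measured against DYRK1A as one member of a broad kinome profiling panel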
[34] = biological target: Cytochrome P450 2C9 (Homo sapiens, UniProt P11712)

Sequence of Rho-associated protein kinase 1 (Q13464 whole entry): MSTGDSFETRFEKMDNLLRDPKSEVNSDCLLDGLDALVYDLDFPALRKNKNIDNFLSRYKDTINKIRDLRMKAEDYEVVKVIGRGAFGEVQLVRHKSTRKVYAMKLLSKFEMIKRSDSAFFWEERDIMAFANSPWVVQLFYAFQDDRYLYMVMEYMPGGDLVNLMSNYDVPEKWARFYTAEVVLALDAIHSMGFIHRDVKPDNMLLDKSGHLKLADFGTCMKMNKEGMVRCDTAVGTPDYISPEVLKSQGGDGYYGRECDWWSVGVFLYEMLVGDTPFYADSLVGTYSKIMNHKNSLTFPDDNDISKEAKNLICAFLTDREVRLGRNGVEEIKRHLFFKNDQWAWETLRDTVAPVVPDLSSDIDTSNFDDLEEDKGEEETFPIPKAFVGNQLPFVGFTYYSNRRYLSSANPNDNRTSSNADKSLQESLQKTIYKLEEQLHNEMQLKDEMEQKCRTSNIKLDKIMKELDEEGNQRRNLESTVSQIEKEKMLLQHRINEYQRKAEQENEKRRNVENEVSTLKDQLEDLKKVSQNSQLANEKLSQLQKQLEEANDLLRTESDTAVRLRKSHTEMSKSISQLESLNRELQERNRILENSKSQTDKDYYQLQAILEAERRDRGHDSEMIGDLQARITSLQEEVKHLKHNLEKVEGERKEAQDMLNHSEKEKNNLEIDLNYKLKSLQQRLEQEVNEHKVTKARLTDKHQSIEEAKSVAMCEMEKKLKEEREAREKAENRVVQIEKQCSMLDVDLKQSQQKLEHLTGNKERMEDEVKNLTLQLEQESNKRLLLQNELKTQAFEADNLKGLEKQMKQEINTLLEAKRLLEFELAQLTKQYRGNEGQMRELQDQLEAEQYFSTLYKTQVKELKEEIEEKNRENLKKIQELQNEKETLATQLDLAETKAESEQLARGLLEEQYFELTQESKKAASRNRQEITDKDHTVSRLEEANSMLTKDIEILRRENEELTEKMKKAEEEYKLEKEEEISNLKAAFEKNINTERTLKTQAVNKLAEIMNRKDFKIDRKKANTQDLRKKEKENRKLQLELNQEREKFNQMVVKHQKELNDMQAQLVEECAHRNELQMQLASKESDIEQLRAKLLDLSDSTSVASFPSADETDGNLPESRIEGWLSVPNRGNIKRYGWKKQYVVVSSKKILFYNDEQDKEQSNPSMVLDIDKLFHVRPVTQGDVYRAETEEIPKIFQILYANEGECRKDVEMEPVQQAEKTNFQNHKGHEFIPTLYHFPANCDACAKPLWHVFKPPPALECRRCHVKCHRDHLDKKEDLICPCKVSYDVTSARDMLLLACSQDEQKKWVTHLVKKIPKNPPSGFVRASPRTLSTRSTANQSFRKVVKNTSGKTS
Sequence of Tyrosine-protein kinase receptor TYRO3 (Q06418 whole entry): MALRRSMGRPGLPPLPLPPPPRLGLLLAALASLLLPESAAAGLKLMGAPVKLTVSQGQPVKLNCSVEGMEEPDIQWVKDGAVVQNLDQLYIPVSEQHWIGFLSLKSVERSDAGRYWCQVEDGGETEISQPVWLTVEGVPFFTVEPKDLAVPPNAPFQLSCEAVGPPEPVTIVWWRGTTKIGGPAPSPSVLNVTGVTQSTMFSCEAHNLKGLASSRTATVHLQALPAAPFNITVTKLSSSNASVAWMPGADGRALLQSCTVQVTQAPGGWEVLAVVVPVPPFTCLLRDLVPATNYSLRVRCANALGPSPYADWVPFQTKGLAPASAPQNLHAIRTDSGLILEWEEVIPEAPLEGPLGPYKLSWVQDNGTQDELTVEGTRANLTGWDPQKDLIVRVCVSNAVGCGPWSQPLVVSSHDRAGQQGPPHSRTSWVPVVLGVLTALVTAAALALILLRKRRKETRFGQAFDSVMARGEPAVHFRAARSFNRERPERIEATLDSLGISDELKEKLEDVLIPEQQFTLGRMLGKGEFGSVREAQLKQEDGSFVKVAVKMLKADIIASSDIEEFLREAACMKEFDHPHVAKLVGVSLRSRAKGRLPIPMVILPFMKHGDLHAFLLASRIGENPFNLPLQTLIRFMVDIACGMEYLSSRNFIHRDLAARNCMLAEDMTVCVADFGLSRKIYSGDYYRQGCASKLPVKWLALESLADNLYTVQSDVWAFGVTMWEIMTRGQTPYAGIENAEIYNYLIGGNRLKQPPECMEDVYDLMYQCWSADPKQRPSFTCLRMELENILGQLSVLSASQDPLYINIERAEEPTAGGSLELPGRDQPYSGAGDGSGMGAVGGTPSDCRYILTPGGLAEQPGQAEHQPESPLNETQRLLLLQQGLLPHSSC
Sequence of Polyadenylate-binding protein 1 (P11940 whole entry): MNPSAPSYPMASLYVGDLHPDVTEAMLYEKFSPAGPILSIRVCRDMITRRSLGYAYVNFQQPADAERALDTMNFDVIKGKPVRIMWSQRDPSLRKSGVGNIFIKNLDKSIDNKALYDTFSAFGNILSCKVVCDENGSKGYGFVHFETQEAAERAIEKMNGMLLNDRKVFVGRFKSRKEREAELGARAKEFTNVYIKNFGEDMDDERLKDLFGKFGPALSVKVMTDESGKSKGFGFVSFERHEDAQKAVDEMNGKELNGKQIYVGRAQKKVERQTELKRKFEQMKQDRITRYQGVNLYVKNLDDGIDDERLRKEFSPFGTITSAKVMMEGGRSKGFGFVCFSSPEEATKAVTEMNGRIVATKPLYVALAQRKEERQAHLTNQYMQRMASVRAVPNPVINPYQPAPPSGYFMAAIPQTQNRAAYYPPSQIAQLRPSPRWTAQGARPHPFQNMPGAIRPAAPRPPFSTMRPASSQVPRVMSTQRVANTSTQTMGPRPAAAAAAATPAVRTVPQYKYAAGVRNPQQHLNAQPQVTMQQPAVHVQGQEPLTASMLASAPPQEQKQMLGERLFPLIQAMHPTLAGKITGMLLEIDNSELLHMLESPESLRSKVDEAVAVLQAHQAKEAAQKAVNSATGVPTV
Sequence of Protein kinase C zeta type (Q05513 whole entry): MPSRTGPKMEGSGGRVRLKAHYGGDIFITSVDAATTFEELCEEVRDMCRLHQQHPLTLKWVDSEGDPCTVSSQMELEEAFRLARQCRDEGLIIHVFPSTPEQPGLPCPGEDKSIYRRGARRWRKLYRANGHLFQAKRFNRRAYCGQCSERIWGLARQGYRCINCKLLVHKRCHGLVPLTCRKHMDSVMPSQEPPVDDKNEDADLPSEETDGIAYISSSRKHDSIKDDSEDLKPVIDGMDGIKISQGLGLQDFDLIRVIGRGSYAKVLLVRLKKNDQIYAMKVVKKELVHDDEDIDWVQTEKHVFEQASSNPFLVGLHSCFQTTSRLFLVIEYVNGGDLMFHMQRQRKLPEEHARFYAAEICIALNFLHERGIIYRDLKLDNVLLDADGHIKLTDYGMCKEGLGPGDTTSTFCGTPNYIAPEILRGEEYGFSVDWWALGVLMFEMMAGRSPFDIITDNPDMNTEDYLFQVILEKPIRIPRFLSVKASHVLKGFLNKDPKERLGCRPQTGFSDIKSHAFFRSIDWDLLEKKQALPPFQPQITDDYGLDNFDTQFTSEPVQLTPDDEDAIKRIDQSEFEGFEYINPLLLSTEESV
Sequence of Cell division cycle 7-related protein kinase (O00311 whole entry): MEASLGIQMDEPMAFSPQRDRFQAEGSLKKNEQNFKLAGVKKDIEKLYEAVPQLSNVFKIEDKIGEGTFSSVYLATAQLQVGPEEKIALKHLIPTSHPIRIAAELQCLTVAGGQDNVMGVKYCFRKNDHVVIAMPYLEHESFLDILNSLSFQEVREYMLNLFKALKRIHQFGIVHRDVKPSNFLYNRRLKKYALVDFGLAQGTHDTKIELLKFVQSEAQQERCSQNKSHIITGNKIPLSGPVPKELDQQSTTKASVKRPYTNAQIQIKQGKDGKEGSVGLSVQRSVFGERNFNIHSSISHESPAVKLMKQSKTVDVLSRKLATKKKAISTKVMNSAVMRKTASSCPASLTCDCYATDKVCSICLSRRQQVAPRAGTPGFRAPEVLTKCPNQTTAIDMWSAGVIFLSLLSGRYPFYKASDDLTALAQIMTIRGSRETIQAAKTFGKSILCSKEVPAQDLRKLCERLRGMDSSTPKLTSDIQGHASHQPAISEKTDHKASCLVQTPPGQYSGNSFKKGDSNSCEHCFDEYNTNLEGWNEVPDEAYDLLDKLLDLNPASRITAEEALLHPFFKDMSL
Sequence of Tyrosyl-DNA phosphodiesterase 2 (O95551 whole entry): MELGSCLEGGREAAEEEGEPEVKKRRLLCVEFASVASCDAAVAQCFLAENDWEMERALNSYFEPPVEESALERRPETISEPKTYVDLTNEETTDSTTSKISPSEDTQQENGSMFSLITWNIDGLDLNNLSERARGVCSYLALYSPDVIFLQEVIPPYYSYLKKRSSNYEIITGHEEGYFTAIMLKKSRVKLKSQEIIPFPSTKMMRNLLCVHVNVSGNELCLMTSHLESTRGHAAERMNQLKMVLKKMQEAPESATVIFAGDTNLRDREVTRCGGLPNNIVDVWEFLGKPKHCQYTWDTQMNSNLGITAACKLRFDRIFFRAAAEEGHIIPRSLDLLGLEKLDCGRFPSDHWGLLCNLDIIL
Sequence of Calcium/calmodulin-dependent protein kinase type II subunit gamma (Q13555 whole entry): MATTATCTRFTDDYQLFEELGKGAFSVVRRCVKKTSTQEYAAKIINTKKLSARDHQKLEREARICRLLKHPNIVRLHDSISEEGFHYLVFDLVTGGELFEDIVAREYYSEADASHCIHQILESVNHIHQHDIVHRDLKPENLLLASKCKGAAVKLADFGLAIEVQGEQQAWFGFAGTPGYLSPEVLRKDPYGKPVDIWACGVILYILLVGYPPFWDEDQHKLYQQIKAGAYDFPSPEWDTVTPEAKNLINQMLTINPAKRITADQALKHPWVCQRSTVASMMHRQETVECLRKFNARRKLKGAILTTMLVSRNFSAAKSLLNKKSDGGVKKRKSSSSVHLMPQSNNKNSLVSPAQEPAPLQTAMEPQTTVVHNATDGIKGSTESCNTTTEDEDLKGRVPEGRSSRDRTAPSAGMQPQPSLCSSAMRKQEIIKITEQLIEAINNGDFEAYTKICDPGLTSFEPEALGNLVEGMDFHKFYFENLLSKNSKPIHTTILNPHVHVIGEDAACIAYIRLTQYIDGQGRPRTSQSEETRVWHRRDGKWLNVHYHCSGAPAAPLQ

**Q.** With `O=C(COC(=O)c1ccc([N+](=O)[O-])s1)Nc1cccc(S(=O)(=O)/N=C2/CCCCCN2)c1` as the molecule, how does the IC50 [1] read?
**A.** Its IC50 is > 47100 nM (inactive).

**Q.** What about the EC50 [2] of the same molecule?
**A.** Its EC50 is > 53000 nM (inactive).

**Q.** For `COc1ccc(C(C[N+](=O)[O-])c2c(C)[nH]n(-c3ccccc3)c2=O)cc1` (centres undefined), which IC50 [3] is on record?
**A.** Its IC50 is 6910 nM (active).

**Q.** With `Oc1c2ccccc2c2c3c(cccc13)N=N2` [SP-600125] as the molecule, how does the Ki [4] read?
**A.** Its Ki is 501 nM (active).

**Q.** What about the Ki [5] of the same molecule?
**A.** The Ki was 398 nM (active).

**Q.** And the Ki [6]?
**A.** The Ki was 631 nM (active).

**Q.** What about the Ki [7] of the same molecule?
**A.** Its Ki is > 7940 nM (inactive).

**Q.** What about the Ki [8] of the same molecule?
**A.** The Ki was > 2000 nM (inactive).

**Q.** What about the Ki [9] of the same molecule?
**A.** Its Ki is 631 nM (active).

**Q.** What about the Ki [10] of the same molecule?
**A.** The Ki was 63.1 nM (active).

**Q.** And the Ki [11]?
**A.** Its Ki is 126 nM (active).

**Q.** What about the Ki [12] of the same molecule?
**A.** The Ki was 1580 nM (active).

**Q.** What about the Ki [13] of the same molecule?
**A.** Its Ki is 1000 nM (active).

**Q.** What about the Ki [14] of the same molecule?
**A.** The Ki was 3160 nM (active).

**Q.** What about the Ki [15] of the same molecule?
**A.** The Ki was > 7940 nM (inactive).

**Q.** And the Ki [16]?
**A.** The Ki was 1000 nM (active).

**Q.** What about the Ki [17] of the same molecule?
**A.** Its Ki is > 1580 nM (inactive).

**Q.** And the Ki [18]?
**A.** Its Ki is 501 nM (active).

**Q.** And the Ki [19]?
**A.** Its Ki is > 631 nM (inactive).

**Q.** And the Ki [20]?
**A.** Its Ki is > 1580 nM (inactive).

**Q.** And the Ki [21]?
**A.** Its Ki is 398 nM (active).

**Q.** What about the Ki [22] of the same molecule?
**A.** Its Ki is > 7940 nM (inactive).

**Q.** And the Ki [23]?
**A.** Its Ki is 2000 nM (active).

**Q.** What about the Ki [24] of the same molecule?
**A.** The Ki was > 10000 nM (inactive).

**Q.** And the Ki [25]?
**A.** Its Ki is 158 nM (active).

**Q.** And the Ki [26]?
**A.** Its Ki is > 7940 nM (inactive).

**Q.** And the Ki [27]?
**A.** The Ki was 316 nM (active).

**Q.** And the Ki [28]?
**A.** The Ki was 3980 nM (active).

**Q.** What about the Ki [29] of the same molecule?
**A.** Its Ki is 63.1 nM (active).

**Q.** What about the IC50 [30] of the same molecule?
**A.** Its IC50 is > 66000 nM (inactive).

**Q.** And the Ki [31]?
**A.** The Ki was > 10000 nM (inactive).

**Q.** And the Ki [32]?
**A.** The Ki was 794 nM (active).

**Q.** And the Ki [33]?
**A.** Its Ki is 126 nM (active).

**Q.** What about the AC50 [34] of the same molecule?
**A.** The AC50 was “inconclusive”.
